Results: article PMC8219945 (Bioorganic Chemistry, 2021)

test system: SARS-CoV-2; test: Antiviral IC50 determination; type: cell-based, SARS-CoV-2 (hCoV-19/Egypt/NRC-03/2020); conditions: not given

Row | SMILES | SI (selectivity index/therapeutical index): CC50/IC50
1 | CCN(CCO)CCCC(C)Nc1ccnc2cc(Cl)ccc12 (centres unmarked) [HCQ, hydroxychloroquine, reference compound] | 10.85

same assay, conditions: CC50 VERO-E6 / IC50 SARS-CoV-2

Row | SMILES | SI (selectivity index/therapeutical index): CC50/IC50
2 | COc1ccccc1-n1cc(COc2cc(C(F)(F)F)nc3ccccc23)nn1 [Compound 10e, 4-((1-(2-Methoxyphenyl)-1H-1,2,3-triazol-4-yl)methoxy)-2-(trifluoromethyl)quinoline] | 0.03
3 | COc1ccccc1-n1cc(Cn2c(C(F)(F)F)cc(=O)c3cc(C)ccc32)nn1 [Compound 11c, 1-((1-(2-Methoxyphenyl)-1H-1,2,3-triazol-4-yl)methyl)-6-methyl-2-(trifluoromethyl)quinolin-4(1H)-one] | 3.15
4 | COc1ccc(-n2cc(Cn3c(C(F)(F)F)cc(=O)c4ccccc43)nn2)cc1 [Compound 11a, 1-((1-(4-Methoxyphenyl)-1H-1,2,3-triazol-4-yl)methyl)-2-(trifluoromethyl)quinolin-4(1H)-one] | 3.69
5 | Fc1ccc(-n2cc(COc3cc(C(F)(F)F)nc4ccccc34)nn2)cc1 [Compound 10a, 4-((1-(4-Fluorophenyl)-1H-1,2,3-triazol-4-yl)methoxy)-2-(trifluoromethyl)quinoline] | 5.04
6 | COc1ccccc1-n1cc(COc2cc(C(F)(F)F)nc3ccc(F)cc23)nn1 [Compound 10h, 6-Fluoro-4-((1-(2-methoxyphenyl)-1H-1,2,3-triazol-4-yl)methoxy)-2-(trifluoromethyl)quinoline] | 0.76
7 | Cc1ccc2nc(C(F)(F)F)cc(OCc3cn(-c4ccccc4Cl)nn3)c2c1 [Compound 10i, 4-((1-(2-Chlorophenyl)-1H-1,2,3-triazol-4-yl)methoxy)-6-methyl-2-(trifluoromethyl)quinoline] | 4.51
8 | Fc1ccc2nc(C(F)(F)F)cc(OCc3cn(-c4ccccc4Cl)nn3)c2c1 [Compound 10g, 4-((1-(2-Chlorophenyl)-1H-1,2,3-triazol-4-yl)methoxy)-6-fluoro-2-(trifluoromethyl)quinoline] | 26.42
9 | Cc1ccc(-n2cc(COc3cc(C(F)(F)F)nc4ccccc34)nn2)cc1 [Compound 10b, 4-((1-(p-Tolyl)-1H-1,2,3-triazol-4-yl)methoxy)-2-(trifluoromethyl)quinoline] | 0.49
10 | COc1ccc2nc(C(F)(F)F)cc(OCc3cn(-c4ccc(F)cc4)nn3)c2c1 [Compound 10k, 4-((1-(4-Fluorophenyl)-1H-1,2,3-triazol-4-yl)methoxy)-6-methoxy-2-(trifluoromethyl)quinoline] | 1.34
11 | FC(F)(F)c1cc(OCc2cn(-c3ccccc3Cl)nn2)c2ccccc2n1 [Compound 10d, 4-((1-(2-Chlorophenyl)-1H-1,2,3-triazol-4-yl)methoxy)-2-(trifluoromethyl)quinoline] | 2.85
12 | Cc1ccc(-n2cc(COc3cc(C(F)(F)F)nc4ccc(F)cc34)nn2)cc1 [Compound 10f, 6-Fluoro-4-((1-(p-tolyl)-1H-1,2,3-triazol-4-yl)methoxy)-2-(trifluoromethyl)quinoline] | 1.71
13 | COc1ccc(-n2cc(COc3cc(C(F)(F)F)nc4ccccc34)nn2)cc1 [Compound 10c, 4-((1-(4-Methoxyphenyl)-1H-1,2,3-triazol-4-yl)methoxy)-2-(trifluoromethyl)quinoline] | 0.03
14 | COc1ccc2nc(C(F)(F)F)cc(OCc3cn(-c4ccc(C)cc4)nn3)c2c1 [Compound 10l, 6-Methoxy-4-((1-(p-tolyl)-1H-1,2,3-triazol-4-yl)methoxy)-2-(trifluoromethyl)quinoline] | 0.65
